Data taken from patent EP1969933A1, “Di-halogen phenoxy phenylamidines and their use as fungicides” (Bayer CropScience AG, priority 2007, dated 2008).
Like-named read-outs stand apart in the source and are kept apart here.

Experiments:
[1] = logP (acidic, pH 2.3, and neutral); format: physicochemical; settings: for logP: read-out: logP neutr.
Uromyces appendiculatus = experiment: Uromyces test (bean) / protective; format: in vivo; settings: 10ppm active ingredient, evaluated 10 days after inoculation, 0 % = control, 100 % = no infestation
Text: (§1) Zur Herstellung einer zweckmäßigen Wirkstoffzubereitung vermischt man 1 Gewichtsteil Wirkstoff mit den angegebenen Mengen Lösungsmittel und Emulgator und verdünnt das Konzentrat mit Wasser auf die gewünschte Konzentration.
Zur Prüfung auf protektive Wirksamkeit werden junge Pflanzen mit der Wirkstoffzubereitung in der angegebenen Aufwandmenge besprüht. Nach Antrocknen des Spritzbelages werden die Pflanzen mit einer wäßrigen Sporensuspension des Bohnenrosterregers Uromyces appendiculatus inokuliert und verbleiben dann 1 Tag bei ca. 20°C und 100% relativer Luftfeuchtigkeit in einer Inkubations-kabine.
Die Pflanzen werden dann im Gewächshaus bei ca. 21°C und einer relativen Luftfeuchtigkeit von ca. 90% aufgestellt.
(§2) 10 Tage nach der Inokulation erfolgt die Auswertung. Dabei bedeutet 0% ein Wirkungsgrad, der demjenigen der Kontrolle entspricht, während ein Wirkungsgrad von 100% bedeutet, daß kein Befall beobachtet wird.

Podosphaera leucotricha = experiment: Podosphaera test (apple) / protective; format: in vivo; settings: 240 h, 100 ppm active ingredient, evaluated 10 days after inoculation, 0 % = control, 100 % = no infestation, read-out: Wirkungsgrad
Text: as §1
(§3) Zur Prüfung auf protektive Wirksamkeit werden junge Pflanzen mit der Wirkstoffzubereitung in der angegebenen Aufwandmenge besprüht. Nach Antrocknen des Spritzbelages werden die Pflanzen mit einer wäßrigen Sporensuspension des Apfelmehltauerregers Podosphaera leucotricha inokuliert. Die Pflanzen werden dann im Gewächshaus bei ca. 23°C und einer relativen Luftfeuchtigkeit von ca. 70% aufgestellt.
as §2

Sphaerotheca fuliginea = experiment: Sphaerotheca test (cucumber) / protective; format: in vivo; settings: Podosphaera fuliginea, 168 h, 100ppm active ingredient, evaluated 7 days after inoculation, 0 % = control, 100 % = no infestation, read-out: Wirkungsgrad
Text: as §1
as §3, with “von Sphaerotheca fuliginea” for “des Apfelmehltauerregers Podosphaera leucotricha”, “dann” for “dann im Gewächshaus”, “70% im Gewächshaus” for “70%”
7 Tage nach der Inokulation erfolgt die Auswertung. Dabei bedeutet 0% ein Wirkungsgrad, der demjenigen der Kontrolle entspricht, während ein Wirkungsgrad von 100% bedeutet, daß kein Befall beobachtet wird.

[2] = system: Erysiphe graminis f. sp. hordei; experiment: Erysiphe test (barley) / protective; format: in vivo; settings: Blumeria graminis, 168 h, 500 ppm active ingredient, evaluated 7 days after inoculation, 0 % = control, 100 % = no infestation, read-out: Wirkungsgrad
Text: as §1
Zur Prüfung auf protektive Wirksamkeit bespritzt man junge Getreidepflanzen mit der Wirkstoffzubereitung in der angegebenen Aufwandmenge. 1 Tag nach der Behandlung werden die Pflanzen mit Sporen von Erysiphe graminis f. sp. hordei inokuliert. Anschließend werden die Pflanzen in einem Gewächshaus bei 70 % relativer Luftfeuchtigkeit und einer Temperatur von 18°C aufgestellt.
7 Tage nach der Inokulation erfolgt die Auswertung. Dabei bedeutet 0 % ein Wirkungsgrad, der demjenigen der Kontrolle entspricht, während ein Wirkungsgrad von 100 % bedeutet, daß kein Befall beobachtet wird.

Leptosphaeria nodorum = Leptosphaeria nodorum test (wheat) / protective; format: in vivo; settings: 500 ppm active ingredient, evaluated 12-14 days after inoculation, 0 % = control, 100 % = no infestation
Text: as §1
Zur Prüfung auf protektive Wirksamkeit bespritzt man junge Weizenpflanzen mit der Wirkstoffzubereitung in der angegebenen Aufwandmenge. 1 Tag nach der Behandlung werden die Pflanzen mit einer wäßrigen Sporensuspension von Leptosphaeria nodorum inokuliert und verbleiben dann 48h bei 100% rel. Luftfeuchte und 20°C. Anschließend werden die Pflanzen in einem Gewächshaus bei 80 % rel. Luftfeuchtigkeit und einer Temperatur von 22°C aufgestellt.
12-14 Tage nach der Inokulation erfolgt die Auswertung. Dabei bedeutet 0 % ein Wirkungsgrad, der demjenigen der Kontrolle entspricht, während ein Wirkungsgrad von 100 % bedeutet, dass kein Befall beobachtet wird.

Puccinia recondita = experiment: Puccinia test (wheat) / protective; format: in vivo; settings: 240 h, 1000 ppm active ingredient, protective spray, evaluated 10 days after inoculation, 0 % = control, 100 % = no infestation, read-out: Wirkungsgrad
Text: as §1
Zur Prüfung auf protektive Wirksamkeit werden junge Pflanzen mit der Wirkstoffzubereitung in der angegebenen Aufwandmenge besprüht. Nach Antrocknen des Spritzbelages werden die Pflanzen mit einer Konidiensuspension von Puccinia recondita besprüht. Die Pflanzen verbleiben 48 Stunden bei 20°C und 100 % relativer Luftfeuchtigkeit in einer Inkubationskabine.
Die Pflanzen werden dann in einem Gewächshaus bei einer Temperatur von ca. 20°C und einer relativen Luftfeuchtigkeit von 80 % aufgestellt, um die Entwicklung von Rostpusteln zu begünstigen.
10 Tage nach der Inokulation erfolgt die Auswertung. Dabei bedeutet 0 % ein Wirkungsgrad, der demjenigen der Kontrolle entspricht, während ein Wirkungsgrad von 100 % bedeutet, daß kein Befall beobachtet wird.

[3] = pH 2.3, acidic, read-out: logP sauer
[4] = pH 2, pH 2,3, read-out: log P (pH 2,3)

Row | Structure (SMILES) | logP ([1]; neutral) | logD [1, 3] | pest or weed control at 500 ppm [2] [%] | pest or weed control at 1000 ppm (Puccinia recondita) [%] | further results
1 | CCCN(C)C=Nc1cc(C)c(Oc2cc(F)cc(I)c2)cc1C [Nr. 20] | 6.6 | 2.61 | – | – | –
2 | CCN(C)C=Nc1cc(C)c(Oc2cc(F)cc(Br)c2)cc1C [Nr. 3] | 5.8 | 2.29 | ≥ 70 | ≥ 70 | Wirkungsgrad (Uromyces appendiculatus): ≥ 70%; pest or weed control at 100 ppm (Podosphaera leucotricha): ≥ 70%; pest or weed control at 100 ppm (Sphaerotheca fuliginea): ≥ 70%; Wirkungsgrad (Leptosphaeria nodorum): ≥ 70%
3 | CCN(C)C=Nc1cc(C)c(Oc2ccc(Cl)c(Br)c2)cc1C [Nr. 15] | 6.1 | 2.23 | – | ≥ 70 | Wirkungsgrad (Leptosphaeria nodorum): ≥ 70%
4 | Cc1cc(Oc2ccc(Cl)c(Br)c2)c(C)cc1N=CN1CCCC1 [Nr. 18] | 6.6 | 2.56 | – | – | –
5 | Cc1cc([N+](=O)[O-])c(C)cc1Oc1ccc(Cl)c(Cl)c1 [4-(3,4-Dichlorphenoxy)-2,5-dimethylnitrobenzol] | – | – | – | – | logD [1, 4]: 5.19
6 | CCN(C)C=Nc1cc(C)c(Oc2ccc(Cl)c(Cl)c2)cc1C [Nr. 30, N-Ethyl-N-methyl-N'-[4-(3,4-dichlorphenoxy)-2,5-dimethylphenyl]formamidin] | – | – | – | – | logD [1, 4]: 2.48
7 | Cc1cc(Oc2cc(F)cc(Br)c2)c(C)cc1N=CN1CCCCC1 [Nr. 12] | 6.5 | 2.55 | ≥ 70 | ≥ 70 | –
8 | Cc1cc(Oc2cc(Cl)cc(Br)c2)c(C)cc1N=CN(C)C(C)C [Nr. 7] | 6.8 | 2.7 | ≥ 70 | ≥ 70 | Wirkungsgrad (Uromyces appendiculatus): ≥ 70%; pest or weed control at 100 ppm (Podosphaera leucotricha): ≥ 70%; pest or weed control at 100 ppm (Sphaerotheca fuliginea): ≥ 70%
9 | CCN(C)C=Nc1cc(C)c(Oc2ccc(Br)c(I)c2)cc1C [Nr. 27] | 6.1 | 2.67 | – | – | Wirkungsgrad (Leptosphaeria nodorum): ≥ 70%
10 | CCN(C)C=Nc1cc(C)c(Oc2ccc(F)c(F)c2)cc1C [Nr. 2] | 6.2 | 2.37 | – | – | –
11 | Cc1cc(Oc2ccc(Cl)c(I)c2)c(C)cc1N=CN1CCCCC1 [Nr. 26] | – | 2.52 | – | – | Wirkungsgrad (Leptosphaeria nodorum): ≥ 70%
12 | Cc1cc(Oc2ccc(Cl)c(Br)c2)c(C)cc1N=CN1CCCCC1 [Nr. 16] | 6.9 | 2.66 | – | ≥ 70 | –
13 | Cc1cc(Oc2cc(F)cc(I)c2)c(C)cc1N=CN1CCCCC1 [Nr. 21] | 6.8 | 2.6 | – | ≥ 70 | Wirkungsgrad (Leptosphaeria nodorum): ≥ 70%
14 | Cc1cc(Oc2cc(Br)cc(Br)c2)c(C)cc1N=CN(C)C(C)C [Nr. 5] | 6.4 | 2.62 | ≥ 70 | ≥ 70 | –
15 | Cc1cc(Oc2cc(F)cc(I)c2)c(C)cc1N=CN1CCCC1 [Nr. 22] | 6.6 | 2.46 | – | – | –
16 | CCN(C)C=Nc1cc(C)c(Oc2ccc(F)c(Br)c2)cc1C [Nr. 23] | 5.7 | 2.29 | – | ≥ 70 | Wirkungsgrad (Uromyces appendiculatus): ≥ 70%; pest or weed control at 100 ppm (Sphaerotheca fuliginea): ≥ 70%

Row | Structure (SMILES) | logP ([1]; neutral) | logD [1, 3] | pest or weed control at 500 ppm [2] [%] | pest or weed control at 1000 ppm (Puccinia recondita) [%] | further results
17 | CCN(C)C=Nc1cc(C)c(Oc2cc(F)cc(Cl)c2)cc1C [Nr. 8] | 5.6 | 2.21 | ≥ 70 | ≥ 70 | –
18 | CCN(C)C=Nc1cc(C)c(Oc2cc(Cl)cc(Br)c2)cc1C [Nr. 6] | 6.4 | 2.56 | ≥ 70 | ≥ 70 | pest or weed control at 100 ppm (Podosphaera leucotricha): ≥ 70%; pest or weed control at 100 ppm (Sphaerotheca fuliginea): ≥ 70%
19 | CCCN(C)C=Nc1cc(C)c(Oc2cc(F)cc(Br)c2)cc1C [Nr. 14] | 7.4 | 2.37 | ≥ 70 | ≥ 70 | –
20 | CCCN(C)C=Nc1cc(C)c(Oc2cc(F)cc(Cl)c2)cc1C [Nr. 11] | 6.1 | 2.39 | ≥ 70 | ≥ 70 | pest or weed control at 100 ppm (Podosphaera leucotricha): ≥ 70%; pest or weed control at 100 ppm (Sphaerotheca fuliginea): ≥ 70%
21 | CCCN(C)C=Nc1cc(C)c(Oc2ccc(Cl)c(Br)c2)cc1C [Nr. 17] | 6.6 | 2.64 | – | – | –
22 | Cc1cc(Oc2cc(F)cc(Cl)c2)c(C)cc1N=CN1CCCC1 [Nr. 10] | 5.6 | 2.26 | – | – | –
23 | Cc1cc(Oc2ccc(Cl)c(Cl)c2)c(C)cc1N [4-(3,4-Dichlorphenoxy)-2,5-dimethylanilin] | – | – | – | – | logD [1, 4]: 3.51
24 | CCN(C)C=Nc1cc(C)c(Oc2cc(F)cc(I)c2)cc1C [Nr. 19] | – | 2.4 | – | ≥ 70 | –
25 | CCN(C)C=Nc1cc(C)c(Oc2ccc(Cl)c(I)c2)cc1C [Nr. 25] | – | 2.29 | – | ≥ 70 | pest or weed control at 100 ppm (Podosphaera leucotricha): ≥ 70%; Wirkungsgrad (Leptosphaeria nodorum): ≥ 70%
26 | Cc1cc(Oc2cc(F)cc(Cl)c2)c(C)cc1N=CN1CCCCC1 [Nr. 9] | 6.3 | 2.42 | ≥ 70 | ≥ 70 | pest or weed control at 100 ppm (Podosphaera leucotricha): ≥ 70%; pest or weed control at 100 ppm (Sphaerotheca fuliginea): ≥ 70%
27 | Cc1cc(Oc2ccc(Cl)c(I)c2)c(C)cc1N=CN(C)C(C)C [Nr. 24] | 6.2 | 2.4 | – | ≥ 70 | Wirkungsgrad (Uromyces appendiculatus): ≥ 70%; pest or weed control at 100 ppm (Podosphaera leucotricha): ≥ 70%; pest or weed control at 100 ppm (Sphaerotheca fuliginea): ≥ 70%; Wirkungsgrad (Leptosphaeria nodorum): ≥ 70%
28 | CCCN(C)C=Nc1cc(C)c(Oc2cc(F)cc(Br)c2)cc1C [Nr. 28] | – | – | – | – | logP sauer ([1]; acidic): 2,91; logP neutr. ([1]; neutral): 6,9
29 | Cc1cc(Oc2cc(F)cc(Br)c2)c(C)cc1N=CN1CCCC1 [Nr. 13] | 5.7 | 2.37 | ≥ 70 | ≥ 70 | –
30 | Cc1cc(Oc2cc(F)cc(Br)c2)c(C)cc1N=CN1CC(C)OC(C)C1 (stereo not shown) [Nr. 29] | 5.8 | 2.59 | – | – | –
31 | CCN(C)C=Nc1cc(C)c(Oc2cc(Br)cc(Br)c2)cc1C [Nr. 4] | 6 | 2.5 | ≥ 70 | ≥ 70 | pest or weed control at 100 ppm (Podosphaera leucotricha): ≥ 70%; pest or weed control at 100 ppm (Sphaerotheca fuliginea): ≥ 70%
